Some results are limits rather than exact numbers.

This note sets out measurements from patent US9708330B2, “2,3-dihydroimidazol[1,2-C]pyrimidin-5(1-H)-one based ipoprotein-associated phospholipase A2 (Lp-PLA2) inhibitors” (GlaxoSmithKline Intellectual Property Development Limited, priority 2013, dated 2017).

Experiment [1] has as its target T1, recombinant human Lp-PLA2 (Homo sapiens, UniProt Q13093).
T1 sequence (Q13093 22-441): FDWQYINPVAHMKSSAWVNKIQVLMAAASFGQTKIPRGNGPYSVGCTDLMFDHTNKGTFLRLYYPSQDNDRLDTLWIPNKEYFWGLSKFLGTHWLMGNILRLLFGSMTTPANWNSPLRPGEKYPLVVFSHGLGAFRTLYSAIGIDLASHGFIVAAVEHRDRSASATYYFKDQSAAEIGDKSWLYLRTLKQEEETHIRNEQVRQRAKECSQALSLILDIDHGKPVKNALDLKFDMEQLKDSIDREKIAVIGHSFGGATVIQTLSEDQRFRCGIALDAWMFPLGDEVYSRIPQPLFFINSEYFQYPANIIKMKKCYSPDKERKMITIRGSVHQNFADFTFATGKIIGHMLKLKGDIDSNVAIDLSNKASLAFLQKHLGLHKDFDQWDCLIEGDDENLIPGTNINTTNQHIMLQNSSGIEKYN
The experiment is described as follows: Recombinant human Lp-PLA2 assay (rhLp-PLA2), PED6 assay. The conditions noted are these: Examples 1-137, read-out: rhLp-PLA2 (pIC50) (converted). The class given is biochemical. The text has this:
N-((6-(2,4-dinitrophenyl)amino)-hexanoyl)-2-(4,4-difluoro-5,7-dimethyl -4-bora-3a,4a-diaza-s-indacene-3-pentanoyl)-1-hexadecanoyl-sn-glycero-3-phosphoethanolamine, triethylammonium salt (PED6) is a commercially available fluorescently-labeled phospholipid, which is commercially available from Invitrogene and Molecular Probes. There is a quenching para-nitro phenyl (PNP) group in the sn3 position and a Bodipy fluorescein (FL) group in the sn2 position. Upon cleavage with Lp-PLA2, the Bodipy FL group is liberated and then may result in an increase in fluorescence. Inhibitors of Lp-PLA2 therefore prevent this cleavage and no fluorescent increase is observed.
The PED6 assay was run as an unquenched 10 μL assay. The source plate containing the compounds to be tested was prepared by making 1:3 (by volume) serial dilution of the compounds within DMSO on 384-well microplate. Then, 0.01 μL of the compounds on compound source plate were transferred into 384 well Greiner 784076 (black) plates using ECHO liquid dispenser. […] The plates were read for fluorescence intensity at ex: 480/em: 540 using ViewLux microplate imager for Envision spectrofluroimeters pIC50 data, curve and QC analysis was conducted by using XL fit module in Excel.

Experiment [2] concerns the target T1, recombinant human Lp-PLA2. The experiment is described as follows: Recombinant human Lp-PLA2 assay, hrThioPAF assay. The class given is biochemical. Particulars: Example 138, read-out: rhLp-PLA2 (pIC50) (converted). The text has this:
1-O-hexadecyl-2-deoxy-2-thio-S-acetyl-sn-glyceryl-3-phosphorylcholine (2-thio-PAF) is a substrate for PAF-hydrolases (PAF-AH) commercially available from Cayman Chemical. Upon cleavage with PAF-AH, the free thiol is released at the sn-2 position and can then react with 7-diethylamino-3-(4′-maleimidylphenyl)-4-methylcoumarin (CPM) a thiol-reactive coumarin. This reaction (Michael addition) results in an increase in fluorescence. Inhibitors of Lp-PLA2 therefore prevent this cleavage and no fluorescent increase is observed.
The Thio-PAF assay was run as an unquenched 20 μL assay. The source plate containing the compounds to be tested was prepared by making 1:3 (by volume) serial dilution of the compounds within DMSO on 384-well microplate. Then, 5 μL of the compounds on compound source plate were transferred into 384 well Greiner 784076 (black) plates using STAR+ (Hamilton) liquid dispenser. 10 μL of recombinant human Lp-PLA2 enzyme (20 pM rhLp-PLA2 in assay buffer of 50 mM HEPES, pH 7.4, 150 mM NaCl, 1 mM CHAPS) was added to each well of the plate. […] The plates were read for fluorescence intensity at ex: 380 nm/em: 485 nm using Envision plate reader (Perkin Elmer). […]

Experiment [3] deals with T2, Lp-PLA2 in human plasma (Homo sapiens, UniProt Q13093).
T2 construct: from tissue; host or cells: pooled human plasma
T2 sequence (Q13093 22-441): T1 sequence (Q13093 22-441)
Kind of experiment: Lp-PLA2 human plasma assay, alternative Thio-PAF assay (3b). The class given is biochemical. The conditions noted are these: pooled human plasma, Example 138, read-out: pIC50 in the Lp-PLA2 human plasma assay (converted). The protocol:
The human plasma assay utilizes the same thioester analog of PAF as described in (1b) “hr ThioPAF” assay. This assay may detect the activity of Lp-PLA2 in human plasma, as determined by specific inhibition by Lp-PLA2 inhibitors.
The thio-PAF assay was run as a quenched 20 μL assay. Compounds source plate was prepared by making 1:3 (by volume) serial dilution of the compounds into pure DMSO on 96-well microplate. 5 μL of compounds on compound source plate were transferred to 96-well Corning 3686 (black) low-volume plates by STAR+ (Hamilton) liquid dispenser. 10 μL pooled human plasma, which was previously aliquoted and frozen, was added. Plates were centrifuged for 30 sec at 1000 rpm. After 15 minutes preincubation at room temperature, 5 μL of substrate solution comprising 2 mM 2-thio-PAF [from ethanol stock], 52 μM CPM [from a DMSO stock] and 2.5 mM NEM (N-ethylmaleimide) [made fresh daily in DMSO] in assay buffer (50 mM HEPES, pH 7.4, 150 mM NaCl, 1 mM CHAPS) was added to 96-well Corning 3686 (black) low-volume plates. After 3 mins, reaction was quenched with 10 μL of 5% aqueous trifluoroacetic acid (TFA). Plates were centrifuged 30 sec at 1000 rpm, covered to protect from light and incubated for 10 min at room temperature. Plates were read at ex: 380 nm/em: 485 nm using Envision plate reader (Perkin Elmer). […]

In experiment [4] the target is T2, Lp-PLA2 in human plasma. Kind of experiment: Lp-PLA2 human plasma assay, Thio-PAF assay (3a). The class given is biochemical. The conditions noted are these: pooled human plasma, Examples 1-137, read-out: pIC50 in the Lp-PLA2 human plasma assay (converted). An excerpt: The human plasma assay utilizes a thioester analog of PAF (phosphatidylcholine), where hydrolysis yields to the formation of a phospholipid containing a free thiol group. The amount of thiol is quantitated continuously by reacting with CPM (7-diethylamino-3-(4′-maleimidylphenyl)-4-methylcoumarin), a maleimide which increases in fluoresence after Michael addition of thiols. This assay may detect the activity of Lp-PLA2 in human plasma, as determined by specific inhibition by Lp-PLA2 inhibitors.
The thio-PAF assay was run as a quenched 15 μL assay. Compounds source plate was prepared by making 1:3 (by volume) serial dilution of the compounds into pure DMSO on 384-well microplate. 0.01 μL of compounds on compound source plate were transferred to 384 well Greiner 784076 (black) low-volume plates by ECHO liquid dispenser. 8 μL pooled human plasma, which was previously aliquoted and frozen, was added. Plates were centrifuged for 10 sec at 500 rpm. After 30 minutes preincubation, 2 μL of substrate solution comprising 2.5 mM 2-thio-PAF [from ethanol stock], 32 μM CPM [from a DMSO stock] and 3.2 mM NEM (N-ethylmaleimide) [made fresh daily in DMSO] in assay buffer of 50 mM HEPES, pH 7.4, 150 mM NaCl, 1 mM CHAPS was added to 384 well Greiner 784076 (black) low-volume plates by BRAVO liquid handling station. […] Plates were read at ex: 380 /em: 485 using Envision microplate reader. […]

The subject of experiment [5] is rat EAE model. The experiment is described as follows: Rat experimental autoimmune encephalomyelitis (EAE) model, preventive treatment. The class given is in vivo. The protocol:
A further study was carried out to study the impact of Lp-PLA2 inhibitors on modulating M1/M2 imbalance. In this study, rats were induced to develop experimental autoimmune encephalomyelitis (EAE) by immunization with myelin basic protein (MBP) antigen and treated with a known Lp-PLA2 inhibitor: 5-((9-Methoxy-4-oxo-6,7-dihydro-4H-pyrimido[6,1-a]isoquinolin-2-yl)oxy)-2-(3-(trifluoromethyl)phenoxy)benzonitrile (See PCT application no. PCT/CN2011/001597). In this preventive treatment model, the compound was administered at day 0 (day of immunization) and continued to administer until day 22. The study lasted for 25 days. Rats were subsequently monitored for symptoms of EAE. Rats were immunized with MBP to develop EAE and symptoms were monitored daily. Plasma Lp-PLA2 activity, OxLDL, and LysoPC concentration were determined at different time points through the course of EAE.

The test system of experiment [6] is splenic macrophages and CNS infiltrating macrophages. The experiment is described as follows: Ex vivo analysis of M1 and M2 markers in macrophages of EAE rats by realtime PCR. Further details: species or system rat. The conditions noted are these: macrophages of compound treated EAE rats, day 13 post MBP-immunization. The protocol:
Ex vivo analysis of proinflammatory (M1) and anti-inflammatory (M2) markers in control and compound treated EAE rats. Splenic macrophages were harvested at day 13 post MBP-immunization and assayed for expression of a variety of markers by realtime PCR. CNS infiltrating cells were harvested and macrophages were analyzed for expression of M1 and M2 markers by realtime PCR.

As to `C[C@H]1Cn2c(cc(OCc3cc(F)c(Oc4ccnc(C(F)(F)F)c4)c(F)c3)nc2=O)N1` [E131, (S)-7-((3,5-difluoro-4-((2-(trifluoromethyl)pyridin-4-yl)oxy)benzyl)oxy)-2-methyl-2,3-dihydroimidazo[1,2-c]pyrimidin-5(1H)-one], the IC50 in experiment [1] was 0.251 nM.

Take `C[C@@H]1Cn2c(cc(OCc3cc(F)c(Oc4ccnc(C(F)(F)F)c4)c(F)c3)nc2=O)N1` [E138, (R)-7-((3,5-difluoro-4-((2-(trifluoromethyl)pyridin-4-yl)oxy)benzyl)oxy)-2-methyl-2,3-dihydroimidazo[1,2-c]pyrimidin-5(1H)-one]: the IC50 was 0.794 nM in experiment [2] and at most 100 nM in experiment [3].

As for `C[C@H]1Cn2c(cc(OCc3cccc(F)c3F)nc2=O)N1C` [E111, (S)-7-((2,3-difluorobenzyl)oxy)-1,2-dimethyl-2,3-dihydroimidazo[1,2-c]pyrimidin-5(1H)-one], the IC50 in experiment [4] was over 10000 nM.

Turning to `CC1(C)Cn2c(cc(OCc3ccc(F)c(F)c3)nc2=O)N1` [E120, 7-((3,4-difluorobenzyl)oxy)-2,2-dimethyl-2,3-dihydroimidazo[1,2-c]pyrimidin-5(1H)-one], the IC50 in experiment [4] was over 10000 nM.

On to `COc1ccc2c(c1)CCn1c-2cc(Oc2ccc(Oc3cccc(C(F)(F)F)c3)c(C#N)c2)nc1=O` [5-((9-Methoxy-4-oxo-6,7-dihydro-4H-pyrimido[6,1-a]isoquinolin-2-yl)oxy)-2-(3-(trifluoromethyl)phenoxy)benzonitrile], for which, in experiment [5] (rat EAE plasma), the “plasma Lp-PLA2 activity” value is “decreased” and the “plasma LysoPC levels” value is listed as “decreased”. In experiment [5] (rats immunized with MBP, compound administered day 0 until day 22), the “clinical disease (EAE symptoms)” value was “reduction in clinical disease”. In experiment [6], the “anti-inflammatory (M2) markers expression” value is given as “increase in M2 markers” and the “proinflammatory (M1) markers expression” value is given as “decrease in M1 markers”.
